Test results taken from BindingDB's records for doi:10.1021/np000120k (The University of Tokyo, 2000).
In brackets after ≈: the same amount, converted by molar mass. Starred links: 1 amine or outer side, 2 acyl side, 3 side chain; linkers in the order of their positions; H or OH if unused. Positions of bridges follow the written chain, without caps; N, C: chain ends. Non-standard residues stand in square brackets, D forms with d. Residues, ends and D or L forms follow the SMILES beside them. NMehTyr = CN[C@@H](CCc1ccc(O)cc1)C(=O)O; hTyr = N[C@@H](CCc1ccc(O)cc1)C(=O)O; CO = O=C([*:1])[*:2]

Target: T1, Carboxypeptidase A1 (Homo sapiens, UniProt P15085)
T1 sequence (P15085 whole entry): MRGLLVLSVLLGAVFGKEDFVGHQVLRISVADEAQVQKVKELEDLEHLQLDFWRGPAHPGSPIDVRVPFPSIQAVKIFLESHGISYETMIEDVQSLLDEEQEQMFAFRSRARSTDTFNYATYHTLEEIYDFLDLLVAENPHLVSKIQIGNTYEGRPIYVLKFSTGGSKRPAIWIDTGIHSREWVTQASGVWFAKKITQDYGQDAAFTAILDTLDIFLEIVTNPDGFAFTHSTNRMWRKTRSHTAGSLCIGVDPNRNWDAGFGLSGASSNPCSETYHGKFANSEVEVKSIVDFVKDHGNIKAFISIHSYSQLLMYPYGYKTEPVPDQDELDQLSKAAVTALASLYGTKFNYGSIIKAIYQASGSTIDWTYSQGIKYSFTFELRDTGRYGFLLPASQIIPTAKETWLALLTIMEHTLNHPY
Test: Inhibition of carboxypeptidase A

IC50: 7 ng/mL (≈ 7.53 nM)
SMILES: CC[C@H](C)[C@@H]1NC(=O)[C@H](NC(=O)N[C@@H](Cc2ccc(O)cc2)C(=O)O)CCCCNC(=O)[C@H]([C@@H](C)CC)NC(=O)[C@H](CCc2ccc(O)cc2)N(C)C(=O)[C@H](CCc2ccc(O)cc2)NC1=O [Anabaenopeptin G] ({Tyr-CO}-[dK]I[hTyr][NMehTyr]I; lactam 1-C)
